Laboratory results as given in patent US20210198259A1, “HETEROCYCLIC DERIVATIVES AND USE THEREOF” (C&C RESEARCH LABORATORIES, priority 2018, published 2021).

Legend:
[1] = target: T1, human histamine 4 receptor (hH4R) (Homo sapiens, UniProt Q9H3N8); test: Binding affinity of human histamine 4 receptor (hH4R), [3H] histamine displacement; settings: [3H] labeled histamine, hH4R-overexpressed cell membrane
T1 construct: purchased Multispan
Protocol: The compounds prepared in the above Examples, the compound of Example 55 of International Publication No. WO 2010/030785 and the compound of Example 4 of International Publication No. WO 2013/048214 were diluted by 1,000 fold (v/w) with DMSO, and then 1 mL of the diluted compound solution was mixed with 99 mL of the analysis buffer solution (50 mM tris-HCl pH 7.4, 5 mM EDTA) to obtain concentration of 1 μM. […] of the prepared compound solution was transferred to each well of a 96-well plate, and then 20 mL of 100 μM histamine diluted with analysis buffer solution and 1% DMSO were transferred to each well to calculate non-specific binding and total binding degree. 15 μg of human histamine 4 receptor-overexpressed cell membrane (Multispan) was diluted into […] of analysis buffer solution and that was transferred to each well. [^3H] labeled histamine (PerkinElmer) was diluted into 10 nM concentration, 20 mL was allocated in each well, and then it was kept in a 27° C. incubator for 30 minutes. After the reaction, 100 mL of the mixture was transferred to a glass fiber plate in which 0.5% polyethylene amine was pre-soaked, and then non-binding [^3H] labeled histamine was removed in vacuum. After 6 times washing with 200 mL of washing buffer solution (50 mM tris-HCl, pH 7.4), the plate was dried in a 37° C. oven for 18 hours. […] of betaScint cocktail solution was added to each well, and after 10 minutes CPM (count per minute) value of [^3H] labeled histamine was measured by the use of Micro beta2™. The binding affinity (% inhibition) of the human histamine 4 receptor for the compounds of the present invention was analyzed by an Excel program, and the results of analysis are represented in Table 1.

[2] = Test for pharmacokinetics in ICR mice (oral); format: in vivo; settings: 50 mg/kg, ICR mouse, 5 mg/mL solution at 10 mL/kg, plasma
Protocol: As the administration solution for mice of the compounds prepared in the above
Examples, the compound of Example 55 of International Publication No. WO 2010/030785 and the compound of Example 4 of International Publication No. WO 2013/048214, 20% hydroxypropyl-β-cyclodextrin solution (99.75%) and 2N HCl (0.25%) were added sequentially to make 5 mg/mL. Provided that in the case of the compound of Example 10, 99.5% of 20% hydroxypropyl-β-cyclodextrin solution and 0.5% of 2N HCl […] were added.
The weight of each ICR mouse was properly 20-30 g. Dosage of the compound of the present invention was 10 mL/kg, and administered orally using Zonde. Blood collection was performed at 0.5, 1, 2, 4, 7 and 24 hours by orbital venous blood collection using a capillary tube coated with an anticoagulant, and then plasma was isolated using a centrifuge and kept in a freezer.
Plasma collected from animals and standard concentration material were pre-treated using solid-phase extraction, and concentration of the compound of the invention was determined using a liquid chromatography mass spectrometer (Agilent HPLC, API-4000 Qtrap). According to the resulting concentration value, the pharmacokinetics parameter was found using WinNonlin (Version 7.0) and half-life (t1/2), maximum blood concentration (Cmax) and area under the curve (AUCall) are represented in Table 2.

[3] = test system: ICR mice; test: Histamine-induced itching model in ICR mice; format: in vivo, mouse; settings: 50 mg/kg oral, scratches counted for 20 minutes
Protocol: Female, ICR mice (8 weeks old) were purchased from OrientBio Co., Ltd. The animals were housed under conditions of controlled temperature (23±3° C.), humidity (50±5%) and lighting with food and water available ad libitum. Water and food were stopped 1 hour before the experiment.
For easy intradermal injection of pruritogen (histamine, dissolved in saline injection solution to make the concentration of 300 nmol per 40 μL) the hair was clipped using clippers (8000AD, THRIVE) over the rostral part of the back 24 hours before the experiment under inhalation anesthesia with isoflurane. Mice (n=10 per group) were divided into 5 groups (normal group, control group and 3 experimental groups). […] At the end of the filming, the number of scratches of the test animals was counted during 20 minutes after histamine administration using the recorded video. The number of scratches was counted a series of actions from scratching with the rear foot of the animal to the time of taking the rear foot to the mouth as one time (J. Allergy Clin. Immunol. 2007, 19(1), 176-183). All data were analyzed by using Excel and Prism, and the number of scratching of each group is expressed as the mean±S.E.M. The inhibitory effect of compounds is shown as a percentage of the maximal response to histamine (100% control group). Statistical analysis was analyzed using one-way ANOVA with Dunnett test. […]

T1 sequence (Q9H3N8 whole entry): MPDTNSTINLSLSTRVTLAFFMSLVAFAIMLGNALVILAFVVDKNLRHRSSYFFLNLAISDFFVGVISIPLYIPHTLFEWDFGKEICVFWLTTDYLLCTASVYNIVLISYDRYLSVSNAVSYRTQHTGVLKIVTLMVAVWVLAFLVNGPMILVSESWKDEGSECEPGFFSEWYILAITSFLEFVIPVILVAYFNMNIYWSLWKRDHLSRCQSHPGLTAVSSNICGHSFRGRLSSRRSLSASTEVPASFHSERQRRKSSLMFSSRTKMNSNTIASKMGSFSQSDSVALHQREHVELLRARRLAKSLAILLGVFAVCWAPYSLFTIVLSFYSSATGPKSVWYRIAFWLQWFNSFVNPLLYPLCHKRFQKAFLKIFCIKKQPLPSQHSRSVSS

For `CNC1CN(C2=Nc3ccc(Br)cc3N3CC(=O)N=C23)C1` [Example 13, 8-bromo-4-(3-(methylamino)azetidin-1-yl)imidazo[1,2-a]quinoxalin-2(1H)-one], the “Human histamine 4 receptor (hH4R) binding affinity (% inhibition at 1 μM)” value [1] was 95.8%, the AUC [2] was 30500 ng·h/mL and the Cmax [2] was 2500 ng/mL. For the same compound, the “Inhibitory rate (%) After 30 minutes” value ([3]; histamine given 30 minutes after dosing) was 131% and the “Inhibitory rate (%) After 7 hours” value ([3]; histamine given 7 hours after dosing) was 99.0%.
